Five molecules from PMC11882969 (Nature Communications, 2025) can be followed below.

As a reminder, the efflux ratio is a quotient of directional permeabilities that is used to spot active efflux.

Where “and” joins values, the source holds several entries; their conditions need not be identical. Identical values can stand only once. Like-named read-outs stand apart in the source and are kept apart here.

For data set [1] the following is noted: pH 7.4, kinetic, 2% DMSO, 25 °C.
Data set [2] in a line: in vitro. Particulars: mouse, microsomes, pH 7.4.
The conditions of data set [3]: for Stability time course, Mean (FS10f): relative to 100 at 0 min.
For a further data set, the system named is P-gp (human MDR1). Nature of the data set: in vitro. The conditions noted are these: dog, MDCK-MDR1, pH 7.4.
For data set [4] the following is noted: mouse plasma, 1.0 µM.
Data set [5] can be described thus: in vitro. The conditions noted are these: mouse, pH 7.4.
Data set [6] addresses T1, CB1R with G protein (Gi1-3, Go) (Homo sapiens, UniProt P21554).
T1 construct: a N-terminal FLAG tag and C-terminal histidine tag was added to human full-length CB1; FLAG (N); histidine tag (C); made in house; host or cells: CB1R: Spodoptera frugiperda Sf9; G proteins: Trichoplusia ni Hi5
Put plainly: GTP turnover assay (GTPase-Glo). The data set is classed as biochemical. Particulars: replicates, sheet FigS3c. As for the experimental part:
Analysis of GTP turnover was performed by using a modified protocol of the GTPase-Glo^TM assay (Promega) described previously. Ligand-bound (10 μM ligand incubated for one hour at room temperature) or apo CB1R (1 μM) was mixed with G protein (1 μM) in 20 mM HEPES, pH 7.5, 50 mM NaCl, 0.01% L-MNG/0.001% CHS, 100 μM TCEP, 10 μM GDP and 10 μM GTP and incubated at room temperature. GTPase-Glo-reagent was added to the sample after incubation for 60 min (Gi1-3) and 20 min for (Go). Luminescence was measured after the addition of detection reagent and incubation for 10 min at room temperature using a SpectraMax Paradigm plate reader.

A further data set has as its system CB1R. Nature of the data set: Bimane fluorescence of labeled CB1R. In kind it is biochemical, human. Particulars: 10 μM ligand; apo 459 nm. As for the experimental part:
A minimal cysteine version of CB1R was generated[85] where all the cysteine residues (except C256 and C264) were mutated to alanine. […] Excess label was removed using size exclusion chromatography on a Superdex 200 10/300 Increase column in 20 mM HEPES pH 7.5, 100 mM NaCl and 0.01% MNG/0.001% CHS. Bimane-labeled CB1R at […] was incubated with ligands (10 μM) for one hour at room temperature. Fluorescence data was collected at room temperature in a 150 μL cuvette with a FluorEssence v3.8 software on a Fluorolog instrument (Horiba) in photon-counting mode. Bimane fluorescence was measured by excitation at 370 nm with excitation and emission bandwidth passes of 4 nm. The emission spectra were recorded from 410 to 510 nm with 1 nm increment and 0.1 s integration time.

T1 sequence (P21554 whole entry): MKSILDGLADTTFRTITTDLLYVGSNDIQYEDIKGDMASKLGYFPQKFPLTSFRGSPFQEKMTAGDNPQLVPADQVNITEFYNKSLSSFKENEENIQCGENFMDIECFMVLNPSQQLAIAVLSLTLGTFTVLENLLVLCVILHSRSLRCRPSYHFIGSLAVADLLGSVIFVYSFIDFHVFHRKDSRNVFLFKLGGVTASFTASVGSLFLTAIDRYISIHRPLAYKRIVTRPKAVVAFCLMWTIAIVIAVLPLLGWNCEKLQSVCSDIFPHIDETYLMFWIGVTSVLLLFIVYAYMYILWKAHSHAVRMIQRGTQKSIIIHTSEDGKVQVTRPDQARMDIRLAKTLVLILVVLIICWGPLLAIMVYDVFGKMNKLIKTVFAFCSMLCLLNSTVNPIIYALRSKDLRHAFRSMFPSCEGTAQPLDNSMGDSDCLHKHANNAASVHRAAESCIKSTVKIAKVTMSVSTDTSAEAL

Turning to `Cc1nccn1CC1CCc2c(c3ccccc3n2C)C1=O` (stereo not shown) [Ondansetron], in data set [1], the “PBS solubility, Mean” value was 120 µM.
`CC(C)NCC(O)COc1cccc2ccccc12` (stereo not shown) [Propranolol]: the fraction remaining at 40 min, 2 µM in the data set “in vitro [2]” was 106%. Moreover, the “Stability time course, Mean (FS10f)” value in data set [3] (Time 0 min) was 100; in data set [3] (Time 7 min), 46.9307; in data set [3] (Time 15 min) it was 32.0792; in data set [3] (Time 25 min), 24.5545; in data set [3] (Time 40 min), 16.6997. Also, the “Mean % Remaining” value in data set [3] (mouse microsomes, 15 min) is on record as 32%.
As for `C[C@H]1O[C@@H](O[C@H]2[C@@H](O)C[C@H](O[C@H]3[C@@H](O)C[C@H](O[C@H]4CC[C@@]5(C)[C@H](CC[C@@H]6[C@@H]5C[C@@H](O)[C@]5(C)[C@@H](C7=CC(=O)OC7)CC[C@]65O)C4)O[C@@H]3C)O[C@@H]2C)C[C@H](O)[C@@H]1O` [Digoxin], the efflux ratio at 90 min, 10 μM with P-gp (human MDR1) amounted to 7.3.
Regarding `COc1ccc(CCN(C)CCCC(C#N)(c2ccc(OC)c(OC)c2)C(C)C)cc1OC` (stereo not shown) [Verapamil, reference compound], the “Mean % of bound compound” value in data set [4] is reported as 88%. This molecule returned a recovery at 5 h, 1 μM in the data set “in vitro [5]” of 91%.
In the case of `COC(=O)[C@@H](NC(=O)c1nn(Cc2ccc(F)cc2)c2ccccc12)C(C)(C)C` [MDMB-Fub, MDMB-Fubinaca, reference compound], the “GTP turnover, normalised (FUB about 100)” value in data set [6] (Gi2) was 98.933 and 99.3172 and 100.642 and 101.735 and 100.511 and 98.862; in data set [6] (Gi3), 98.4729 and 99.2586 and 100.386 and 101.71 and 99.9413 and 100.231; in data set [6] (Goa), 94.5882 and 101.149 and 98.4211 and 105.861 and 100.202 and 99.77; in data set [6] (first block, G protein not printed (Gi2, Gi3, Goa follow)) it was 100.725 and 100.983 and 100.099 and 103.208 and 97.7953 and 97.1894. For the same molecule, in the data set on CB1R, the “bimane spectrum λmax” value is 465 nm.
